Reference: paper PMC12562379, “Facile Synthesis of N-vinylindoles via Knoevenagel Condensation: Molecular Features and Biological Activities” (International Journal of Molecular Sciences, 2025)
Values after ≈ are worked out from the molar mass of the structure shown.

Assays:
[1] = tested on: SKOV-3 cells; assay: Cell cycle assay (Muse Cell Analyzer); assay type: cell-based, human; conditions: SKOV-3, 48 h
Description: The SKOV-3 cells (5 × 10^5 cells/well) were seeded and incubated with compound 2i at concentrations of 2, 5, 10, 15, 30, and 60 µg/mL for 48 h. After treatment, Muse Cell Cycle Assay Kit and Muse Cell Analyzer (Merck Millipore, Burlington, MA, USA) were used to analyze the stained cells, according to the manufacturer’s instruction. The results are shown as percentage of the cells in each phase of cell cycle: subG0, G0/G1, S, and G2/M. The experiment was repeated in two independent repeats (in three repetitions).

[2] = tested on: SKOV-3; assay: MTT assay, cytotoxic activity; assay type: cell-based, human; conditions: Homo sapiens, SK-OV-3; SKOV-3, MTT, 24 h, n = 12
Description: (§1) The human ovarian SKOV-3, gastric adenocarcinoma AGS, cervical HeLa cell lines and non-cancerous keratinocytes HaCaT were obtained from the American Type Culture Collection (ATCC, Manassas, VA, USA). The cell lines were cultured in McCoy’s Medium, Dulbecco’s Modified Eagle’s Medium/F12, and DMEM, respectively (Merck Millipore, Burlington, MA, USA). Penicillin (100 units/mL), streptomycin ([…]), and 10% (v/v) fetal bovine serum (FBS) were added to all the media. The cells were incubated at 37 °C and 5% CO2.
(§2) To estimate the cytotoxic activity of the obtained compounds 2a-i, MTT assay was used. The cells (5 × 10^3 cells/well) were treated with the compounds in a range of concentrations 1–150 µg/mL. […] After 24 h, MTT solution (0.5 mg/mL) was added to the cells. Formazan crystals were dissolved in DMSO and the absorbance was measured with a microtiter plate reader (Epoch, BioTek Instruments, Winooski, VT, USA).

[3] = tested on: AGS; assay: MTT assay, cytotoxic activity; assay type: cell-based, human; conditions: Homo sapiens, 24 h, n = 12
Description: as §1, §2

[4] = tested on: HeLa; assay: MTT assay, cytotoxic activity; assay type: cell-based, human; conditions: Homo sapiens, 24 h, n = 12
Description: as §1, §2

[5] = tested on: S. aureus ATCC 6535, S. aureus MRSA 12673 and other tested bacterial and yeast strains; assay: Microbroth dilution assay, ranges stated over several strains; assay type: cell-based; conditions: range over S. aureus ATCC 6535 and MRSA 12673
[6] = tested on: C. glabrata ATCC 2001; assay: Microbroth dilution assay; assay type: cell-based, Candida glabrata; conditions: Nakaseomyces glabratus, ATCC2001
Description: (§3) The minimum inhibitory concentration (MIC) and minimum bactericidal/fungicidal concentration (MBC/MFC) of the tested compounds were determined by the microbroth dilution technique using 96-well plates based on the methodology described in the EUCAST (European Committee on Antimicrobial Susceptibility Testing) standards. Reference and clinical strains of Gram-positive (Staphylococcus aureus ATCC 6538, Staphylococuccus aureus MRSA 6347) and Gram-negative (Escherichia coli ATCC 8739) bacteria, and yeast (Candida albicans ATCC 10231, Candida glabrata ATCC 2001) were used for the assay. The studies were carried out in the Mueller–Hinton (MH) broth for bacteria and RPMI 1640 broth + MOPS (Sigma-Aldrich, Poland) buffer in the case of yeast. The dry test samples were dissolved in DMSO (dimethyl sulfoxide), resulting in a final concentration of 15 mg/mL, and then diluted in a geometric progression. Ampicillin (Sigma-Aldrich, Poland) acted as a control sample (512 to 4 µg/mL) for bacteria and ketoconazole (128 to 1 µg/mL) (Sigma-Aldrich, Poland) acted as a control sample for yeast. The cultures of microorganisms were prepared by transferring cells from the stock cultures to tubes with the appropriate broth and incubated with agitation in an aerobic atmosphere for 18 ± 2 h at 35 ± 1 °C; next, they were diluted to achieve an optical density corresponding to 5 × 105 (bacteria) or 2 × 105 (yeast) colony-forming units per mL (cfu/mL). An appropriate media (96 µL), along with the tested compounds with a final concentration range of 300–3.1 µg/mL (4 µL) and next microbial suspension (100 µL) were added to each well. Plates with samples were incubated in adequate conditions described above and microbial growth was assessed. […] (>90%; ketoconazole) but 50% (for other compounds) inhibits visible growth of yeasts. Next, as a control of microbial viability, 100 µL of the samples from each well without growth was inoculated on the MH or RPMI agar plates and incubated for 18 ± 2 h at 35 ± 1 °C and finally, the CFU was counted. The MBC/MFC was determined as the minimum concentration of compounds required to kill 99.9% the organisms.

[7] = tested on: S. aureus ATCC 6535; assay: Microbroth dilution assay; assay type: cell-based; conditions: Staphylococcus aureus, ATCC6535
[8] = tested on: SKOV-3 cells; assay: Caspase-3/7 assay (apoptosis, Muse Cell Analyzer); assay type: cell-based, human; conditions: SKOV-3, 24 h
Description: The SKOV-3 cells (5 × 10^5 cells/well) were seeded and incubated with compound 2i at concentrations of 2, 5, 10, 15, 30, and 60 µg/mL for 24 h. Then, the cells were stained with Muse Caspase-3/7 Kit, according to the manufacturer’s instructions. Muse Cell Analyzer and Muse 1.4 Analysis Software (Merck Millipore, Burlington, MA, USA) were used to calculate the amount of live, early apoptotic, late apoptotic, and dead cells. The results are shown as a percentage of the cells in each population obtained from two independently repeated experiments (in three repeats).

[9] = tested on: HaCaT; assay: MTT assay, cytotoxic activity on non-cancerous keratinocytes; assay type: cell-based; conditions: Homo sapiens, 24 h, n = 12
Description: as §1, §2

[10] = tested on: S. aureus MRSA 12673; assay: Microbroth dilution assay; assay type: cell-based; conditions: Staphylococcus aureus, S. aureus MRSA 12673
[11] = tested on: HeLa, SKOV-3, AGS (and HaCaT) cell lines; assay: MTT assay, ranges stated over several cell lines; assay type: cell-based, human; conditions: for IC50: Homo sapiens
Description: as §1, §2

[12] = tested on: E. coli ATCC 8739; assay: Microbroth dilution assay; assay type: cell-based; conditions: Escherichia coli, ATCC8739, E. coli ATCC 8739
Description: as §3

[13] = range over the cancer cell lines HeLa, SKOV-3 and AGS

C(=C(\C1=NCCN1)n1ccc2ccccc21)/c1ccc2ccccc2c1 [Compound 2i, (Z)-1-[1-(4,5-dihydro-1H-imidazol-2-yl)-2-(naphthalen-2-yl)vinyl]-1H-indole]
cells in subG0 phase ([1]; 2 µg/mL): 28.10 ± 4.49% | cells in subG0 phase ([1]; 5 µg/mL): 49.00 ± 0.85% | cells in subG0 phase ([1]; 10 µg/mL): 82.73 ± 1.33% | cells in subG0 phase ([1]; 15 µg/mL): 91.67 ± 0.57% | cells in subG0 phase ([1]; 30 µg/mL): 95.30 ± 1.67% | cells in subG0 phase ([1]; 60 µg/mL): 99.83 ± 0.15% | cell cycle arrest ([1]; 2–60 µg/mL, all concentrations): strongly induced cell cycle arrest in subG0 phase | IC50 [2]: 2.45 ± 0.13 µg/mL (≈ 7.26 µM) | IC50 [3]: 5.68 ± 0.41 µg/mL (≈ 16.8 µM) | IC50 [4]: 2.03 ± 0.05 µg/mL (≈ 6.02 µM) | MBC (range over strains) [5]: 30 µg/mL (≈ 88.9 µM) | MIC (range over strains) [5]: 15 to 30 µg/mL | MFC [6]: 60 µg/mL (≈ 178 µM) | MIC [6]: 60 µg/mL (≈ 178 µM) | MBC [7]: 30 µg/mL (≈ 88.9 µM) | MIC [7]: 15 µg/mL (≈ 44.5 µM) | dead cells ([8]; 2 µg/mL): 6.07 ± 0.58% | late apoptotic cells ([8]; 2 µg/mL): 11.52 ± 1.53% | dead cells ([8]; 5 µg/mL): 7.65 ± 0.61% | late apoptotic cells ([8]; 5 µg/mL): 22.72 ± 1.37% | dead cells ([8]; 10 µg/mL): 18.11 ± 1.45% | late apoptotic cells ([8]; 10 µg/mL): 48.85 ± 0.39% | dead cells ([8]; 15 µg/mL): 31.52 ± 2.68% | late apoptotic cells ([8]; 15 µg/mL): 54.94 ± 3.12% | dead cells ([8]; 30 µg/mL): 68.95 ± 2.09% | late apoptotic cells ([8]; 30 µg/mL): 28.21 ± 1.61% | dead cells ([8]; 60 µg/mL): 66.85 ± 1.96% | late apoptotic cells ([8]; 60 µg/mL): 31.87 ± 2.01% | induction of apoptosis ([8]; from 2 µg/mL to 60 µg/mL): significantly induced apoptosis | IC50 [9]: 3.02 ± 0.18 µg/mL (≈ 8.95 µM) | MBC [10]: 30 µg/mL (≈ 88.9 µM) | MIC ([10]; read-out: MIC): 30 µg/mL (≈ 88.9 µM) | IC50 ([11]; range over HeLa and SKOV-3 cell lines): 2.03 to 2.45 µg/mL (≈ 6.02 to 7.26 µM) | IC50 [11, 13]: 2.03 to 5.68 µg/mL (≈ 6.02 to 16.8 µM) | IC50 (range over cell lines) [11, 13]: 2.03 to 5.58 µg/mL | MBC [12]: > 240 µg/mL | MIC ([12]; read-out: MIC): > 240 µg/mL
